These results are taken from patent publication US20260000496A1, “MATERIALS AND METHODS FOR DRUG-INDUCED GINGIVAL OVERGROWTH” (Optimed Technology, Inc., priority 2019, published 2026).

One experiment relates to MyD88. Briefly: Western blot of MyD88 in oral keratinocytes. The class given is cell-based, human. The note with it: treated with CsA and LPS to simulate the disease, FIG. 35. As to the method:
(§1) Cell Culture. Normal human oral keratinocytes (NOKSI) and fibroblast (HOF) cells were maintained in Dulbecco […] Eagle's medium (Sigma-Aldrich, St. Louis, MO, USA) supplemented with 10% fetal bovine serum (Atlas Bio-logicals, Fort Collins, CO, USA) and 100 units/mL penicillin and 100 μg/mL streptomycin (LifeTechnologies, Carlsbad, CA, USA). Cells were grown in incubator at 37° C. in a humidified chamber with 5% CO2.
Drugs treatment in cell culture. The cells were treated alone or with different combination of lipopolysaccharide, cyclosporine, phenytoin, and folic acid. All of them were purchased from Sigma-Aldrich (St. Louis, MO, USA). Each of them were used from 0 μg/ml to 40 μg/ml and the optimum concentration were found 10 μg/ml.
Western blot analysis. Cells were seeded in 60 mm plates with a density of 5×10^5 cells per plate and washed briefly with Dulbecco's phosphate-buffered saline (Gibco, Waltham, MA, USA). Whole cell lysates were prepared using RIPA lysis buffer containing protease inhibitor cocktail (Sigma-Aldrich). Total protein concentration was determined using the BCA reagent (Pierce, Waltham, MA, USA). 20 μg of total protein were resolved on sodium dodecyl sulfate-polyacrylamide gel electrophoresis and transferred to polyvinylidenedifluoride membrane and immunoblotted. The blots were incubated for 1 h in 1% bovine serum albumin (BSA) (Sigma-Aldrich) to block the non-specific bindings followed by over-night incubation in primary antibodies (MyD88 and pP65 from Cell Signaling Technology, and human LITAF ThermoFisher Sigma) at 4° C. on shaker. Next day, blots were washed for three times (10 min each) in Tris-buffered saline containing 1% Tween20 (TBST) followed by incubation with secondary antibody (Goat anti-rabbit IgG HRP) with 1:10,000 dilution for 1 h. Following washes, bands were visualized using gel documentation Imaging Systems (BioRad). The band intensities were quantified using software ImageJ (NIH, USA) and relative protein levels were normalized by β-actin (Cell Signaling). To perform the western blot of animal tissue samples, the gingival tissues were collected from both BABLB/c and C57BL/6 mice studies. The soft tissues were separated from the mandibular bone and then crunched. The Bradford assay was performed to measure the protein concentration of each sample. After normalization, 20 μg of whole tissue protein lysate were proceeded for western blot analysis.

The subject of experiment [1] is Collagen type I alpha 1 (Col1a1). Briefly: Collagen (Col1a1) expression in Human Oral Fibroblasts, QPCR. The class given is cell-based. The note with it: fibroblasts treated with TGF-β, FIG. 1. Here is the method: as §1
Human Oral Fibroblasts (HOF) cells were seeded in 60 mm plates with a density of 2.5×10^4/cm^2 and treated with condition (CM) media collected from Oral Keratinocytes containing LPS (10 μg/ml), CSA (10 μg/ml), Phenytoin (10 μg/ml), or Folic acid (10 μg/ml) and incubated for 24 hours. The Collagen type I alpha 1 (Col1a1) gene expression was determined by QPCR. HOF cells were treated with rTGF-β, SB-431542 (SB), rTNF-α, or TNF-α inhibitor (TNF-α inh). Quantitative real-time PCR results showing the expression of Col1a1 in HOF cells after the treatment. (p<0.05).

Consider Lipopolysaccharide, for which the “MyD88 expression in human oral keratinocytes after disease-simulating treatment” value in the experiment on MyD88 was “robustly induce MyD88 expression”.

Take TGF-β: the “collagen expression in fibroblasts” value in experiment [1] is reported as “induce collagen expression”.
